Test results reported in patent US20030138470A1, “Fragrant composition having mosquito-repelling effect” (TAKASAGO INTERNATIONAL CORPORATION, priority 2001, published 2003).

Test system: adults of Culex pipiens pallen
Assay: Blood-sucking repelling test on forearms
Type: in vivo
Conditions: 1% test sample solution on forearms, 15 minutes exposure, 30° C., humidity 70%
Protocol: […] of 1% test sample solutions were prepared by dissolving 1 g of each of the fragrant compositions of Examples 1, 2 and 3, Comparative Example 3 (Pelargonium citrosum extract), and Comparative Example 4 (DEET) into 90 g of ethanol and adding 9 g of water.
On the sample solutions of Examples 1, 2 and 3 and Comparative Examples 3 and 4, a blood-sucking repelling test toward adults of Culex pipiens pallen was carried out, whereby strength of mosquito-repellency and persistency were compared.
The test was carried out in a constant-temperature room kept at a temperature of 30° C. and a humidity of 70%.
After 10 ml of each test sample solution was applied onto right and left forearms, each arm was entered for 15 minutes into a bag-shape wire netting having a size of 20 cm×15 cm in which 50 each of male and female mosquitoes which were 5 to 7 days after emergence were placed, whereby the mosquitoes were allowed to suck blood. This operation was repeatedly carried out 1 hour, 2 hours, 3 hours, 4 hours, and 6 hours after the sample application, the number of sucked places within the sucking time was counted, and repellency was calculated according to the following equation.
Repellency=[(X−Y)/X]×100(%)
X: the number of sucked places in the case that no test sample solution was applied.
Y: the number of sucked places in the case that a test sample solution was applied.

CCN(CC)C(=O)c1cccc(C)c1 [Comparative Example 4, N,N-Diethyl-m-toluamide]
100%: Repellency After 1 hour (1 hour after application) | Repellency After 2 hours (2 hours after application) | Repellency After 3 hours (3 hours after application) | Repellency After 4 hours (4 hours after application) | Repellency After 6 hours (6 hours after application)
